Measurements from patent publication US10300026B2, “Use of dihydroxyacetone in preparation of anti-cancer medicaments” (priority 2015, dated 2019).
Where two headings read alike, the source gives them in different places.

What was measured:
HCT116 = assay: CellTiter-Glo cell viability, HCT116 (human colon cancer cell); assay type: cell-based
Procedure: (§1) 15 g of the commercially available 1,3-dihydroxyacetone in the solid powder form was added into 100 mL of 5% glucose (infusion bottle), then filled into 100 bottles.
(§2) After digesting the cells and counting (counting suspended cells directly), the cells were diluted to 1.25×10^5 cells/ml, inoculated into a 384-well plate (5000 cells/well) with 40 μl per well, centrifuged at 1500 rpm for 1 min, placed into the incubator and incubated overnight.
(§3) The medicaments were diluted in gradient with a 5% glucose solution to 5×, respectively. Each well was dosed with 10 μl medicament, with 4 wells (n=4) for each concentration. The cell viability was measured with Luminescence Cell Viability Assay kit after incubating for 72 hours in an incubator.
(§4) CellTiter-Glo reagent was added into each well, the volume of which is the same as that of medium. It was shaked on a shaker for 5 min, centrifuged at 1500 rpm for 1 min, and incubated in the dark at room temperature for 15 min. Then the chemiluminescence was detected with BMG PHERAstar.
(§5) The cell viability was calculated by using the following formula: Cell viability (Viability %)=100%×(LUMsample to be measured−LUMblank)/(LUMsolvent control−LUMblank)
(§6) The curve of Log[concentration] versus cell viability was fitted using Prism 6 to calculate IC50 of sample for each cell line.

T24 = assay: CellTiter-Glo cell viability, T24 (human bladder transitional cell carcinoma cell); assay type: cell-based
Procedure: as §1, §2, §3, §4, §5, §6

MDA-MB-231 = assay: CellTiter-Glo cell viability, MDA-MB-231 (human breast cancer cell); details: 72 hours, n=4, read-out: IC50 calculated based on the concentration of dihydroxyacetone
Procedure: as §1, §2, §3, §4, §5, §6

[1] = test system: human large cell lung cancer H460 cell transplantation tumor; assay: H460 cell transplantation tumor model in naked mice; assay type: in vivo, Balb/c-nude naked mice; details: for TV (mm^3) D1 / Body weight (g) D1: D1 (first day of administration); for Effect of tumor inhibition: vs blank; for Tumor Weight TW: tumors taken out at sacrifice on 22th day; for Tumor Weight Inhibition Rate IR (%): vs blank control group tumor weight
Procedure: Naked mice were subcutaneously inoculated with H460 cells (human large cell lung cancer cell line). When tumors grew to about 100 mm^3, 36 naked mice with similar tumor volume and good shape were selected from 70 naked mice, divided into 6 groups with 6 animals in each group;
Cisplatin: 4 mg/kg, volume of injection was 0.1 mL/10 g, i.p, administration once every 5 days, three weeks in total;
Cisplatin group: 4 mg/kg, volume of injection was 0.1 mL/10 g, i.p, administration once every 5 days, three weeks in total;
Blank group: 0.9% sodium chloride injection, mode of administration was same as DHA group.
3.1.3 Naked mice were inoculated subcutaneously at the right side of back, 0.1 mL/mouse, i.e. each naked mouse was inoculated 2×10^6 cells;
3.2.1 When tumors grew to about 100 mm^3, 36 naked mice with similar tumor volume and good shape were selected from 70 naked mice, and divided into 6 groups with 6 animals in each group.
The mixture was refrigerated at 4° C. when not used. […] 4 mL of 0.6 mg/mL cisplatin solution were measured and added with 2.0 mL physiological saline to formulate a 0.4 mg/mL (4 mg/kg) cisplatin solution. The solution was refrigerated at 4° C. when not used.
The tumor volume and body weight were measured three times per week from the first day of administration. Naked mice were sacrificed on 22th day. The tumors were taken out, weighed and photographed. The tumor inhibition rate was calculated.
The calculation formula is: TV=½×a×b^2, where a and b represents length and width, respectively.
The calculation formula is: RTV=TVt/TV1, where TV1 is a tumor volume when being caged and administrated (i.e., d1), TVt is a tumor volume at each measurement.
The calculation formula is: […]
TRTV: RTV of treatment group; CRTV: RTV of blank control group.
TTW: tumor weight of treatment group; CTW: tumor weight of blank control group; TW: tumor weight.

FaDu = assay: CellTiter-Glo cell viability, FaDu (human pharyngeal squamous cell); assay type: cell-based
Procedure: as §1, §2, §3, §4, §5, §6

A375 = assay: CellTiter-Glo cell viability, A375 (human malignant melanoma cell); assay type: cell-based
Procedure: as §1, §2, §3, §4, §5, §6

[2] = at pH 6.0; cited from earlier work
[3] = H460 tumor naked mice, cisplatin 4 mg/kg i.p. once every 5 days, DHA p.o. 0.1 mL/10 g bid
[4] = D20, H460 tumor naked mice, cisplatin 4 mg/kg i.p. once every 5 days, DHA p.o. 0.1 mL/10 g bid
[5] = cisplatin 4 mg/kg i.p. once every 5 days, DHA p.o. 0.1 mL/10 g bid

Compound: O=C(CO)CO [Dihydroxyacetone, 1,3-dihydroxyacetone]
- IC50 (HCT116; Homo sapiens, HCT-116, 72 h, read-out: IC50 calculated based on the concentration of dihydroxyacetone): 6.82 mM
- IC50 (T24; Homo sapiens, T-24, 72 h, read-out: IC50 calculated based on the concentration of dihydroxyacetone): 7.67 mM
- IC50 (MDA-MB-231): 7.95 mM
- TV (mm^3) D1 ([1]; H460 tumor naked mice): 90.47 ± 9.91 mm^3
- Body weight (g) D1 [1, 3]: 21.4 ± 0.7 g
- Body weight (g) D20 [1, 4]: 23.7 ± 1.3 g
- TV (mm^3) D20 [1, 4]: 2300.4 ± 585.1 mm^3
- RTV D20 (relative tumor volume) ([1]; D20, RTV=TVt/TV1, cisplatin 4 mg/kg i.p. once every 5 days, DHA p.o. 0.1 mL/10 g bid): 25.5 ± 6.2
- Effect of tumor inhibition ([1]; H460 tumor naked mice): did not exhibit a significant effect of tumor inhibition
- T/C (%) relative tumor proliferation rate ([1]; final, vs blank control group RTV, cisplatin 4 mg/kg i.p. once every 5 days, DHA p.o. 0.1 mL/10 g bid): 142.0%
- Toxic reaction ([1]; mouse, in vivo): no toxic reaction
- Tumor Weight TW [1, 5]: 1.76 ± 0.44 g
- Tumor Weight Inhibition Rate IR (%) [1, 5]: −50.6%
- IC50 (FaDu; Homo sapiens, 72 h, read-out: IC50 calculated based on the concentration of dihydroxyacetone): 9.42 mM
- IC50 (A375; Homo sapiens, A-375, 72 h, read-out: IC50 calculated based on the concentration of dihydroxyacetone): 6.18 mM
- Stability [2]: stable

Compound: N.N.[Cl][Pt][Cl] [DDP, cis-diammine platinum dichloride, reference compound]
- IC50 (HCT116; HCT116, 72 hours, n=4, read-out: IC50): 0.0229 mM
- IC50 (T24; T24, 72 hours, n=4, read-out: IC50): 0.00622 mM
- TV (mm^3) D1 ([1]; H460 tumor naked mice): 90.30 ± 5.61 mm^3
- Body weight (g) D1 [1, 3]: 21.1 ± 0.9 g
- Body weight (g) D20 [1, 4]: 17.6 ± 0.7 g
- TV (mm^3) D20 [1, 4]: 972.1 ± 289.5 mm^3
- Body temperature ([1]; H460 tumor naked mice): decreased
- Effect of tumor inhibition ([1]; H460 tumor naked mice): significant effect of tumor inhibition
- Body weight during the whole test ([1]; H460 tumor naked mice, whole test): decreased significantly
- Body weight decrease at the end of the test ([1]; end of the test, H460 tumor naked mice): about 16.7%
- Tumor Weight TW [1, 5]: 0.65 ± 0.23 g
- Tumor Weight Inhibition Rate IR (%) [1, 5]: 44.6%
- IC50 (FaDu; 72 hours, n=4, read-out: IC50): 0.0115 mM
- IC50 (A375; A375, 72 hours, n=4, read-out: IC50): 0.00825 mM
